Data taken from ChEMBL document CHEMBL3045294, “Synthesis, anticonvulsant and toxicity screening of thiazolylthiadiazole derivatives” (Med Chem Res, 2011).
Calls of active or inactive are those of the source. The rule behind the calls is not given here.

Legend:
Mus musculus [1] = assay: Anticonvulsant activity in ip dosed Mus musculus albino (mouse) assessed as protection against subcutaneous pentylenetetrazol-induced seizures; type: functional
Mus musculus [2] = assay: Anticonvulsant activity in ip dosed Mus musculus albino (mouse) assessed as protection against maximal electroshock-induced seizures; type: functional
Mus musculus [3] = assay: (§1) Neurotoxicity in ip dosed Mus musculus albino (mouse) after 4 hr rotorod test; type: toxicity, organism-based; details: in vivo, 4 h
Mus musculus [4] = assay: (§2) Neurotoxicity in ip dosed Mus musculus albino (mouse) after 0.5 hr rotorod test; type: toxicity, organism-based; details: in vivo, 0.5 h
Mus musculus [5] = assay: Anticonvulsant activity in ip dosed Mus musculus albino (mouse) assessed as protection against maximal electroshock-induced seizures after 4 hr; type: functional; details: read-out: MED
Mus musculus [6] = assay: Anticonvulsant activity in ip dosed Mus musculus albino (mouse) assessed as protection against maximal electroshock-induced seizures after 0.5 hr; type: functional; details: read-out: MED
Mus musculus [7] = assay: Anticonvulsant activity in Mus musculus albino (mouse) assessed as protection against subcutaneous pentylenetetrazol-induced seizures at 300 mg/kg, ip after 4 hr; type: functional, organism-based; design: dose 300 mg/kg
Mus musculus [8] = assay: Anticonvulsant activity in Mus musculus albino (mouse) assessed as protection against subcutaneous pentylenetetrazol-induced seizures at 300 mg/kg, ip after 0.5 hr; type: functional, organism-based; design: dose 300 mg/kg
Mus musculus [9] = assay: Anticonvulsant activity in ip dosed Mus musculus albino (mouse) assessed as protection against subcutaneous pentylenetetrazol-induced seizures after 4 hr; type: functional; details: read-out: MED
[10] = as §1; type: toxicity, organism-based; details: albino, in vivo
[11] = as §2; type: toxicity, organism-based; details: albino, in vivo
Mus musculus [12] = assay: Anticonvulsant activity in Mus musculus albino (mouse) assessed as protection against maximal electroshock-induced seizures at 300 mg/kg, ip after 4 hr; type: functional, organism-based; design: dose 300 mg/kg
Mus musculus [13] = assay: Anticonvulsant activity in ip dosed Mus musculus albino (mouse) assessed as protection against subcutaneous pentylenetetrazol-induced seizures after 0.5 hr; type: functional; details: read-out: MED
Mus musculus [14] = assay: Anticonvulsant activity in Mus musculus albino (mouse) assessed as protection against maximal electroshock-induced seizures at 300 mg/kg, ip after 0.5 hr; type: functional, organism-based; design: dose 300 mg/kg
Mus musculus [15] = assay: Hepatoxicity in Mus musculus albino (mouse) assessed as effect on SGOT level in serum at 3 to 30 mg/kg, ip; type: toxicity, organism-based; design: dose 3-30 mg/kg, route intraperitoneal; details: in vivo
Mus musculus [16] = assay: Hepatoxicity in Mus musculus albino (mouse) assessed as effect on SGPT level in serum at 3 to 30 mg/kg, ip; type: toxicity, organism-based; design: dose 3-30 mg/kg, route intraperitoneal; details: in vivo
Mus musculus [17] = assay: Hepatoxicity in Mus musculus albino (mouse) assessed as effect on alkaline phosphatase level in serum at 3 to 30 mg/kg, ip; type: toxicity, organism-based; design: dose 3-30 mg/kg, route intraperitoneal; details: in vivo
Mus musculus [18] = species: Mus musculus; assay: Protective index, ratio of TD50 for Mus musculus albino (mouse) to ED50 for Mus musculus albino (mouse) by maximal electroshock-induced seizures test; type: functional
Mus musculus [19] = assay: Protective index, ratio of TD50 for Mus musculus albino (mouse) to ED50 for Mus musculus albino (mouse) by subcutaneous pentylenetetrazol-induced seizures test; type: functional

Row | Structure (SMILES) | ED50 (Mus musculus [1]) [mg/kg] | ED50 (Mus musculus [2]) [mg/kg] | MTC (Mus musculus [3]) [mg/kg] | MTC (Mus musculus [4]) [mg/kg] | minimal effective dose (Mus musculus [5]) [mg/kg] | minimal effective dose (Mus musculus [6]) [mg/kg] | Activity (Mus musculus [7]) | Activity (Mus musculus [8]) | minimal effective dose (Mus musculus [9]) [mg/kg] | MTD at 4 h [10] [mg/kg] | MTD at 0.5 h [11] [mg/kg] | Activity (Mus musculus [12]) | minimal effective dose (Mus musculus [13]) [mg/kg] | Activity (Mus musculus [14]) | Activity (Mus musculus [15]) | Activity (Mus musculus [16]) | Activity (Mus musculus [17]) | Ratio TD50/ED50 (Mus musculus [18]) | Ratio TD50/ED50 (Mus musculus [19]) | TD50 at 0.5 h [11] [mg/kg]
1 | CCC1(c2ccccc2)C(=O)NC(=O)NC1=O [PHENOBARBITAL] | 13.2 | 21.8 | 300 | 100 | 30 | 100 | inactive | inactive |  |  |  |  |  |  |  |  |  |  |  | 
2 | O=C1NC(=O)C(c2ccccc2)(c2ccccc2)N1 [PHENYTOIN] | > 300 |  | 100 | 100 | 30 | 30 | inactive | inactive |  |  |  |  |  |  |  |  |  |  |  | 
3 | Cc1ccccc1Nc1nnc(Nc2nc(-c3ccc([N+](=O)[O-])cc3)cs2)s1 |  |  | 300 | 100 | 100 | 100 |  | inactive | 300 |  |  |  |  |  |  |  |  |  |  | 
4 | COc1ccc(Nc2nnc(Nc3nc(-c4ccccc4)cs3)s2)cc1 |  |  |  | 300 | 100 | 100 |  | inactive | 300 | 300 |  |  |  |  |  |  |  |  |  | 
5 | c1ccc(Nc2nnc(Nc3nc(-c4ccccc4)cs3)s2)cc1 |  |  | 300 |  |  | 300 |  | inactive | 100 |  | 300 | inactive |  |  |  |  |  |  |  | 
6 | COc1ccccc1Nc1nnc(Nc2nc(-c3ccc(Br)cc3)cs2)s1 |  |  | 100 | 300 |  | 300 |  | inactive | 300 |  |  | inactive |  |  |  |  |  |  |  | 
7 | Cc1ccccc1Nc1nnc(Nc2nc(-c3ccc(Cl)cc3)cs2)s1 |  |  |  |  | 300 | 300 | inactive | inactive |  | 300 | 300 |  |  |  |  |  |  |  |  | 
8 | COc1ccccc1Nc1nnc(Nc2nc(-c3ccccc3)cs2)s1 |  |  |  |  | 300 | 100 |  |  | 300 | 300 | 300 |  | 100 |  |  |  |  |  |  | 
9 | COc1ccccc1Nc1nnc(Nc2nc(-c3ccc(Cl)cc3)cs2)s1 |  |  | 300 | 300 | 300 |  |  | inactive | 100 |  |  |  |  | inactive |  |  |  |  |  | 
10 | Cc1ccc(Nc2nnc(Nc3nc(-c4ccccc4)cs3)s2)cc1 |  |  |  |  | 100 | 100 | inactive |  |  | 300 | 300 |  | 300 |  |  |  |  |  |  | 
11 | COc1ccc(Nc2nnc(Nc3nc(-c4ccc(Cl)cc4)cs3)s2)cc1 |  |  |  |  | 300 | 100 |  |  | 300 | 300 | 300 |  | 100 |  |  |  |  |  |  | 
12 | CCCC(CCC)C(=O)O [VALPROIC ACID] | 149 |  |  |  |  |  |  |  |  |  |  |  |  |  |  |  |  |  |  | 
13 | COc1ccc(Nc2nnc(Nc3nc(-c4ccc(Br)cc4)cs3)s2)cc1 | 79.4 | 27.6 |  |  | 100 | 30 | inactive |  |  | 300 | 300 |  | 100 |  | Toxic | Toxic | Toxic | 25.8 | 8.9 | 713
14 | Cc1ccc(Nc2nnc(Nc3nc(-c4ccc([N+](=O)[O-])cc4)cs3)s2)cc1 | 232 | 19.1 |  |  | 100 | 30 | inactive |  |  | 300 | 300 |  | 300 |  | Toxic | Toxic | Toxic | 11.3 | 0.9 | 216
15 | Cc1ccc(Nc2nnc(Nc3nc(-c4ccc(Cl)cc4)cs3)s2)cc1 |  |  |  |  | 100 | 300 |  | inactive | 300 | 300 | 300 |  |  |  |  |  |  |  |  | 
16 | O=[N+]([O-])c1ccc(-c2csc(Nc3nnc(Nc4ccccc4)s3)n2)cc1 |  |  |  | 100 |  | 100 | inactive | inactive |  | 300 |  | inactive |  |  |  |  |  |  |  | 
17 | Cc1ccccc1Nc1nnc(Nc2nc(-c3ccc(Br)cc3)cs2)s1 |  |  |  | 100 | 300 | 300 |  | inactive | 300 | 300 |  |  |  |  |  |  |  |  |  | 
18 | COc1ccccc1Nc1nnc(Nc2nc(-c3ccc([N+](=O)[O-])cc3)cs2)s1 |  |  |  | 300 | 300 | 300 |  | inactive | 300 | 300 |  |  |  |  |  |  |  |  |  | 
19 | Clc1ccc(-c2csc(Nc3nnc(Nc4ccccc4)s3)n2)cc1 |  |  |  |  | 300 |  | inactive | inactive |  | 300 | 300 |  |  | inactive |  |  |  |  |  | 
20 | Brc1ccc(-c2csc(Nc3nnc(Nc4ccccc4)s3)n2)cc1 |  |  | 300 | 300 |  | 300 | inactive | inactive |  |  |  | inactive |  |  |  |  |  |  |  | 
21 | COc1ccc(Nc2nnc(Nc3nc(-c4ccc([N+](=O)[O-])cc4)cs3)s2)cc1 | 433 | 12.6 |  |  | 30 | 30 |  | inactive | 100 | 300 | 300 |  |  |  | Toxic | Toxic | Toxic | 43.6 | 1.2 | 550
22 | Cc1ccccc1Nc1nnc(Nc2nc(-c3ccccc3)cs2)s1 |  |  | 300 |  |  | 300 | inactive | inactive |  |  | 300 | inactive |  |  |  |  |  |  |  | 
23 | CCC1(C)CC(=O)NC1=O (stereo unspecified) [ETHOSUXIMIDE] | > 100 | 8.8 |  |  |  |  |  |  | 300 | 300 | 300 | inactive | 100 | inactive |  |  |  | 8.1 | <0.2 | 71.6
24 | Cc1ccc(Nc2nnc(Nc3nc(-c4ccc(Br)cc4)cs3)s2)cc1 |  |  | 300 | 300 | 100 | 100 |  |  | 300 |  |  |  | 300 |  |  |  |  |  |  | 
